Test results taken from publication PMC9814544 (Communications Chemistry, 2020).
Where “and” joins values, the source holds several entries; their conditions need not be identical. Equal values may be shown once. Entries after “also recorded” stand apart in the source; their conditions may differ.

Experiments:
[1] = tested on: panel of GPCRs, drug transporters, ion channels, nuclear receptors, kinases, and other non-kinase enzymes; test: Eurofins CEREP off-target panel; conditions: at 10 µM; measured once
Description: To assess potential off-target liabilities, BI-0115 was tested on a panel of assays across various key pharmacological target classes (GPCRs, drug transporters, ion channels, nuclear receptors, kinases, and other non-kinase enzymes; Eurofins CEREP, France). […] Although the compound solubility is low, it was sufficient to get a saturable dose response in the cellular assay and the various biophysical assays. Permeability, as measured with the PAMPA assay is good.

[2] = target: T1, human HDL scavenger receptor class B type I (SR-BI) (Homo sapiens, UniProt Q8WTV0); test: SR-B1 cellular oxLDL uptake counter screen (CHO-Trex-hSR-B1); assay type: cell-based
T1 construct: expressed in transfected cells; host or cells: CHO T-REx (CHO-Trex-hSR-B1 cell line)
T1 sequence (Q8WTV0 1-509 isoform Q8WTV0-2): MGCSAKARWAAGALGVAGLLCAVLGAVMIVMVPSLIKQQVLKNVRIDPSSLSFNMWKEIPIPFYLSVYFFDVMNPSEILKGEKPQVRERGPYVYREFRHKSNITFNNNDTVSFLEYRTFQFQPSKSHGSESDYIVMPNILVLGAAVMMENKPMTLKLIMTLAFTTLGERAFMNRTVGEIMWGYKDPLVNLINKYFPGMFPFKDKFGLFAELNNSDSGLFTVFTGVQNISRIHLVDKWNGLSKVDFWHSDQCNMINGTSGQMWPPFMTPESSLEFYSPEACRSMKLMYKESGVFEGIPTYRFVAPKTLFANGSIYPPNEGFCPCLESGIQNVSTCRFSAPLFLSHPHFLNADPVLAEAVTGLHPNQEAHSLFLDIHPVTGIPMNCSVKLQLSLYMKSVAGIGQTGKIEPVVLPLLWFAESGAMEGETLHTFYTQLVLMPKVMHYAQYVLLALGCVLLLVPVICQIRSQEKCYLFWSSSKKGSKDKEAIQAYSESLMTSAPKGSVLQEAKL
From the text: To identify small molecule inhibitors of LOX-1 mediated oxLDL uptake we developed a cellular high throughput screening (HTS) assay. Small molecule compounds were screened for their ability to block the uptake of AlexaFluor594 (AF594)-labeled human oxLDL into a CHO-K1 cell line with inducible expression of the human LOX-1 receptor. This readout was visualized and images were quantified by fluorescence microscopy (Fig. 1a). As positive controls, cells without induction of LOX-1 as well as a blocking anti-LOX-1 antibody[29] was used (Fig. 1b). More than one million different compounds were screened. Lead-like compounds (molecular weight above 270 Da) were tested at a concentration of 5 µg/ml, whereas a fragment subset (molecular weight below 270 Da) was tested at a tenfold higher concentration to ensure detection of more weakly active but ligand-efficient fragment-like compounds. Employing a hit criterion of lower than 50% of control, a hit rate of 2.8% was observed (Supplementary Fig. 1). These hits were further confirmed by performing two independent assay runs with fresh compound samples, resulting in a confirmation rate of 80% and a confirmed hit rate of 2.2% (Supplementary Fig. 2). To filter out unspecific or false-positive hits, a counter screen was developed and applied for testing the primary hits[30]–[32]. […]

CEREP profile [1]: very clean profile; also recorded: clean
activity in the SR-B1 assay ([2]; in words): no activity
Structure (SMILES): CCCN1C(=O)c2ccc(Cl)cc2Nc2ncccc21 [BI-0115]
IC50 ([2]; eight independent measurements 1-8, Supplementary Table 2, read-out: IC50 on SR-B1, individual measurements): 88.8 µM and > 54.2 µM and > 100 µM (4×) and > 172 µM (2×)
